# Values quoted from earlier work in patent US20050020536A1, “Highly pure fondaparinux sodium composition, process for preparing said composition and pharmaceutical compositions containing it as active principle” (priority 2003, published 2005).
# Tested on: factor Xa
# Conditions: general statement in the introduction, no method given
structure (smiles),measurement,value
"CO[C@H]1O[C@H](COS(=O)(=O)[O-])[C@@H](O[C@@H]2O[C@@H](C(=O)[O-])[C@@H](O[C@H]3O[C@H](COS(=O)(=O)[O-])[C@@H](O[C@@H]4O[C@H](C(=O)[O-])[C@@H](O[C@H]5O[C@H](COS(=O)(=O)[O-])[C@@H](O)[C@H](O)[C@H]5NS(=O)(=O)[O-])[C@H](O)[C@H]4O)[C@H](OS(=O)(=O)[O-])[C@H]3NS(=O)(=O)[O-])[C@H](O)[C@H]2OS(=O)(=O)[O-])[C@H](O)[C@H]1NS(=O)(=O)[O-].[Na+].[Na+].[Na+].[Na+].[Na+].[Na+].[Na+].[Na+].[Na+].[Na+] [Fondaparinux sodium, methyl O-2-deoxy-6-O-sulfo-2-(sulfoamino)-α-D-glucopyranosyl-(1→4)-O-β-D-glucopyranuronosyl-(1→4)-O-2-deoxy-3,6-di-O-sulfo-2-(sulfoamino)-α-D-glucopyranosyl-(1→4)-2-O-sulfo-α-D-glucopyranosyl-(1→4)-O-2-O-sulfo-L-idopyranurosyl-(1→4)-2-deoxy-6-O-sulfo-2-(sulfoamino)-α-D-glucopyranoside, decakissodium salt]",anti-factor Xa (anti Xa) activity,very powerful
